Tests used:
F344/N rats = conditions: week 92
B6C3F1 mice = conditions: week 91

Compound: c1ccccc1 [benzene]
- Survival in all groups (F344/N rats): greater than 60%
- Survival in all groups (B6C3F1 mice): greater than 60%
